Source: patent US20240279218A1 (Hoffmann-La Roche Inc., priority 2016, published 2024)
Like-named read-outs stand apart in the source and are kept apart here.

Experiments:
[1] = molecular target: T1, h-GABA-A α5β3γ2 (Homo sapiens (Human), UniProt P18507+P31644); experiment: Two-electrode voltage clamp electrophysiology in Xenopus oocytes expressing GABAA receptors, modulation of GABA EC20 current; type: cell-based
Method in brief: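 Values are % modulation of an EC20 GABA response, derived point by point from the ratio of compound-exposed versus control current traces (extremum taken, 100×(fold−1)). Recordings used oocytes injected with human α5, β3, γ2 mRNA, clamped at −80 mV at room temperature, at least 3 oocytes each.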

[2] = molecular target: T1, h-GABA-A α5β3γ2; experiment: [3H]flumazenil competition binding assay, membranes of HEK293 cells expressing human GABAA receptors
Method in brief: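 Displacement of [3H]flumazenil from membranes of HEK293 cells transiently expressing human α5β3γ2 receptors, in Krebs-tris buffer pH 7.5. Incubation to equilibrium, 1 h at 4° C., then filtration and scintillation counting. Ki is the mean of two determinations.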

[3] = % modulation of GABA EC20 = 100*(Fold increase−1), Xenopus oocytes
[4] = Xenopus oocytes, GABA EC20, test compound at approx. 30 fold its Ki
[5] = displacement of [3H]flumazenil 0.5 nM, HEK293 cells expressing human receptors, mean of two determinations, read-out: Ki h-GABA-A α5β3γ2
[6] = reference compounds, % modulation of GABA EC20
[7] = reference compounds, GABAA α5β3γ2 overexpressing oocytes, GABA EC20
[8] = reference compounds, GABAA receptor α5β3γ2, read-out: Ki α5-human

| Efficacy (GABA) % [1, 3] [%] | Fold increase h-GABA-A α5β3γ2 oocyte [1, 4] | Ki [2, 5] [nM] | Structure (SMILES) | Efficacy (GABA) % [1, 6] | Fold increase h-GABA-A α5β3γ2 oocyte [1, 7] | Ki [2, 8] [nM] |
| --- | --- | --- | --- | --- | --- | --- |
| 64 | 1.64 | 1 | Cc1ccc(-c2noc(C)c2COc2ccc(C(=O)NC3CCOCC3)nn2)nn1 [Example 193, 6-((5-methyl-3-(6-methylpyridazin-3-yl)isoxazol-4-yl)methoxy)-N-(tetrahydropyran-4-yl)pyridazine-3-carboxamide] | – | – | – |
| 84 | 1.84 | 13.3 | Cc1ccc(-c2noc(C)c2COc2ccc(C(=O)N[C@H]3CC[C@H](OCC(F)F)CC3)nn2)cn1 [Example 194, trans-N-(4-(2,2-difluoroethoxy)cyclohexyl)-6-((5-methyl-3-(6-methylpyridin-3-yl)-1,2-oxazol-4-yl)methoxy)pyridazine-3-carboxamide] | – | – | – |
| 78 | 1.78 | 17.3 | CCO[C@H]1CC[C@H](NC(=O)c2ccc(OCc3c(-c4ccc(C)nc4)noc3C)nn2)CC1 [Example 195, N-(4-ethoxycyclohexyl)-6-((5-methyl-3-(6-methylpyridin-3-yl)-1,2-oxazol-4-yl)methoxy)pyridazine-3-carboxamide] | – | – | – |
| – | – | – | Cc1onc(-c2cccnc2)c1COc1ccc(C(=O)NC2CCOCC2)nn1 [RE-A, 6-((5-methyl-3-(3-pyridyl)isoxazol-4-yl)methoxy)-N-tetrahydropyran-4-yl-pyridazine-3-carboxamide, reference compound] | −3% | 0.97 | 65 |
| – | – | – | Cc1onc(-c2ccc(Cl)cn2)c1COc1ccc(C(=O)NC2CCOCC2)nn1 [RE-B, 6-((3-(5-chloro-2-pyridyl)-5-methyl-isoxazol-4-yl)methoxy)-N-tetrahydropyran-4-yl-pyridazine-3-carboxamide, reference compound] | +3% | 1.03 | 0.4 |
| – | – | – | Cc1onc(-c2ccccn2)c1COc1ccc(C(=O)NC2CCOCC2)nn1 [RO-094, reference compound] | −18% | 0.82 | 2.9 |
| – | – | – | Cc1onc(-c2cccnc2)c1COc1ccc(C(=O)NC2CCOCC2)cn1 [RO-159, reference compound] | −12% | 0.88 | 28 |
| – | – | – | Cc1ccc(-c2noc(C)c2COc2ccc(C(=O)NC3CCOCC3)cn2)cc1 [RO-251, reference compound] | −18% | 0.82 | 1 |
| – | – | – | Cc1onc(-c2ccccn2)c1COc1ccc(C(=O)NC2CCOCC2)cn1 [RO-272, reference compound] | −32% | 0.68 | 1 |
| – | – | – | Cc1onc(-c2ccc(Cl)cn2)c1COc1ccc(C(=O)NC2CCOCC2)cn1 [RO-301, reference compound] | −18% | 0.82 | 0.2 |
